Key:
HIF-2a = assay: Immunoblot on nuclear extracts for HIF-2a in treated CD8+ T-lymphocytes; format: cell-based, mouse; details: 0.5 mM, 1 day or 7 days of treatment
Description: The arrow indicates HIF-2a protein.
(§1) Nuclear and cytosolic fractions were prepared from cells with the NE-PER kit (Thermo Scientific) and separated by SDS-PAGE. Proteins were transferred to PVDF membranes and then blocked in 5% milk prepared in phosphate-buffered saline (PBS) plus 0.05% Tween 20. Membranes were then incubated with primary antibodies overnight at 4° C. and horseradish peroxidase (HRP)-conjugated secondary antibodies for 1 h the next day. The following primary antibodies were used at a dilution of 1:1000: HIF1α (Novus), HIF2α (Novus), PDH-E1α (Abcam), PDH-E1α pS232 (Calbiochem), LaminB1 (Abcam), HDAC1 (Abcam), β-tubulin (Abcam), 4E-BP1 (Cell Signalling), phospho-4E-BP1 (S65) (Cell Signalling), phospho-4E-BP1 (T37/T46) (Cell Signalling) S6K (Cell Signalling), phopho-S6K (T389) (Cell Signalling), phopho-S6K (S371) (Cell Signalling).

EG7-OVA cells = assay: In vitro cytotoxicity assay (specific killing by OT-I CD8+ T-lymphocytes); format: cell-based, mouse; details: 0.5 mM for 24 h, 4 hours with target and control cells
Description: (§2) Total splenocytes were activated for 48 h with 1000 nM SIINFEKL and then expanded for a further 4 days in the presence of IL-2 followed by treatment 0.5 mM of S-2HG-octyl R-2HG-octyl ester ester for 24 h. OT-I CD8^+ T-lymphocytes were incubated with target and control cells for 4 hours. n=3 mice per condition. […] Cells were activated for 48 h with αCD3+αCD28 antibodies and then expanded for a further 4 days in the presence of IL-2 followed by treatment with the indicated concentration of S-2HG-octyl ester or R-2HG-octyl ester for 24 hours. n≥16 mice.
Total splenocytes from OT-I mice were activated with SIINFEKL-peptide for 48 h and expanded for a further 4 days in IL-2 containing medium. OT-I-specific CD8^+ T-cells were then treated for 24 h with or without 0.5 mM S-2HG-octyl ester or R-2HG-octyl ester and then incubated with target (EG7-OVA, CFSE-low) and control (EL4, CFSE high) cells. Specific lysis was calculated by normalization of the loss in signal of the CFSE-low population relative to the CFSE-high population after co-culture of 4 hours with the vehicle or S-2HG-octyl ester or R-2HG-octyl ester-treated OT-I-specific CD8^+ T-cells.

CD8^+ T-lymphocytes [1] = assay: IFN-γ and IL-2 protein in media; format: cell-based, mouse; details: 0.5 mM, 24 h
Description: as §2
CD8^+ T-cells were expanded for 4 days and then treated for 16 h with S-2HG octyl ester or R-2HG octyl ester. Glucose and lactate levels in culture medium were measured with a Dade-Behring Dimension RXL analyser. Changes in metabolite concentrations relative to fresh media were normalized to viable cell counts. VEGF, IL-2 and IFN-γ protein levels in media were determined using the following kits from MesoScale Discovery: K150BMC-2 for VEGF, K15048D-2 for IFN-γ and K152QQD-2 for IL-2. Values were normalized to viable cell counts.

CD8^+ T-lymphocytes [2] = assay: Flow cytometry of CD44 and CD62L surface expression; format: cell-based, mouse; details: for CD62L effect when treating CD62L^low CD44^high effector cells: 0.5 mM added after 7 days of vehicle; for reversibility of the CD62L effect upon withdrawal of treatment: 0.5 mM for 7 days then washout, followed 9 more days; for formation of a CD62L^high CD44^high population / effect on CD62L when HIF-1α is absent / CD62L downregulation in HIF-2a null cells: 0.5 mM; for formation of a CD62L^high CD44^high population: with IL-2, antigen specific (OT-I) and polyclonal CD8+ T-lymphocytes; for effect on CD62L when HIF-1α is absent: Hif1α^−/− CD8+ T-lymphocytes; for CD62L downregulation in HIF-2a null cells: Hif2α^−/− CD8+ T-lymphocytes, versus wild type controls
Source text: Data are representative of n=4 individual mice.
Data are representative of 3 mice per genotype.
Data are representative of 2 mice per genotype.
Data are representative of n=3 individual mice.
Cells were stained and acquired on a Fortessa (BD Biosciences). […] For staining of nuclear-located marker Eomes, the Transcription Factor Staining Buffer Set (eBioscience) was used, according to the manufacturer's instructions. For staining of intracellular cytokines, OT-I cells were re-stimulated with […] peptide for 4 h with GolgiStop solution (BD). For ^1H-NMR experiments, CD8^+ T-lymphocytes were sorted from total splenocytes by immunostaining with anti-mouse CD8-AF647 (Biolegend) on a MoFlo (Beckman Coulter). Cells were then activated and cultured as described above.

mTOR = mTOR signalling immunoblot; format: cell-based, mouse; details: 100 μM to 500 μM
Description: as §1

human CD8^+ T cells = assay: Experiments with human CD8+ T cells (CCR7, CD45RO flow cytometry); format: cell-based; details: 14 days; 600 μM S-2HG-octyl ester or 800 μM R-2HG-octyl ester versus vehicle
Description: Numbers in dot plots represent the percentage of cells present in the corresponding quadrant defined by CCR7 and CD45RO expression.
Human CD8^+ T cells were magnetically isolated from blood of healthy donors after gradient centrifugation. Incubation with microbeads conjugated to anti-human CD8 antibodies (Miltenyi 130-097-057) was followed by magnetic bead isolation on a MACS column. Purified human CD8^+ T cells were activated with αCD3 and αCD28 coated beads (Dynabeads, 111.61D) and expanded in the presence of recombinant human IL-2 (30 Ul/mL, Roche 11011456001).
Cells were stained and acquired on a Fortessa (BD Biosciences). The following fluorophores and fluorophore-conjugated antibodies were used: anti-CD62L (Biolegend, MEL-14), anti-CD44 (Biolegend, IM7), anti-CD8a (Biolegend, 53-6.7), anti-CD45.1 (Biolegend, A20), anti-CD45.2 (Biolegend, 104), anti-CD127 (Biolegend, A7R34), anti-KLRG1 (Biolegend, 2F1/KLRG1), anti-CD19 (Biolegend, 6D5), anti-Bcl-2 (Biolegend, BCL/10C4), Eomes (eBioscience, Danlimag), PD-1 (Biolegend, 29F.1A12), […], H-2Kb/SIINFEKL Pentamer-PE (Proimmune, F093-2A), CFSE (Life Technologies), LIVE/DEAD Violet (Life Technologies), PI-AnnexinV (Biolegend, 640928), anti-Bcl-xl-PE (Cell Signalling Technologies, 54H6). For staining of nuclear-located marker Eomes, the Transcription Factor Staining Buffer Set (eBioscience) was used, according to the manufacturer's instructions. For staining of intracellular cytokines, OT-I cells were re-stimulated with SIINFEKL peptide for 4 h with GolgiStop solution (BD). For ^1H-NMR experiments, CD8^+ T-lymphocytes were sorted from total splenocytes by immunostaining with anti-mouse CD8-AF647 (Biolegend) on a MoFlo (Beckman Coulter). Cells were then activated and cultured as described above. For staining of human T cells, CD8^+ T cells were incubated at 37 C for 30 minutes in the presence of anti-CCR7 antibody (eBioscience 12-1979-41), followed by staining with anti-CD45RO antibody (Biolegend, UCHL1).
For experiments with human CD8^+ T cells, cells were magnetically isolated, activated and plated at a concentration of 1×10^6 cells per mL in the presence of 30 UI/mL of recombinant human IL-2. […] On day 14, the surface expression of CCR7 and CD45RO on alive CD8^+ cells was measured by flow cytometry.

Structure (SMILES) | abundance of HIF-2a protein (HIF-2a) | lytic ability of antigen specific OT-I CD8+ T-cells (EG7-OVA cells) | production of interleukin-2 (IL-2) (CD8^+ T-lymphocytes [1]) | secretion of interferon-γ (IFN-γ) (CD8^+ T-lymphocytes [1]) | CD62L effect when treating CD62L^low CD44^high effector cells (CD8^+ T-lymphocytes [2]) | reversibility of the CD62L effect upon withdrawal of treatment (CD8^+ T-lymphocytes [2]) | formation of a CD62L^high CD44^high population (CD8^+ T-lymphocytes [2]) | effect on CD62L when HIF-1α is absent (CD8^+ T-lymphocytes [2]) | CD62L downregulation in HIF-2a null cells (CD8^+ T-lymphocytes [2]) | mTOR signalling (mTOR) | expression of CCR7 (human CD8^+ T cells) | expression of CD45RO (human CD8^+ T cells)
CCCCCCCCOC(=O)[C@@H](O)CCC(=O)O [S-2HG-octyl ester, S-2HG octyl ester] | increase in the abundance | markedly lower | increased | decreased | does not occur | reversible | promotes the formation | masks the effects | inhibits CD62L downregulation | does not inhibit | induced the expression | induced the expression
CCCCCCCCOC(=O)[C@H](O)CCC(=O)O [R-2HG-octyl ester] | increase in the abundance | markedly lower | increased | decreased | does not occur | reversible | promotes the formation | masks the effects | inhibits CD62L downregulation | does not inhibit | induced the expression | induced the expression
